Measured values from US9428771B2, “Method for the oxidation of organic compounds” (STUDIENGE[…] MBH, priority 2010, dated 2016).
Where two headings read alike, the source gives them in different places.

Experiments:
P450 BM3 [1] = molecular target: T1, P450 BM3 (Priestia megaterium, UniProt P14779); assay: P450 BM3 catalysed oxidation of methane to methanol in the presence of an additive; format: biochemical, Bacillus megaterium; design: polyhistidine (His6) tag from vector pETM11 (N); made in house; host or cells: E. coli BL21 (DE3) GOLD; settings: 1 mM additive, 25° C; for Total product formed (methanol): 7% methane, 8% O2, 85% N2, 10 bar; for TON: methane, 10 bar
Description: (§1) The hydroxylation of gaseous alkanes was carried out in a self-constructed low-pressure reactor. […] Subsequently the reaction vessels were linked to a gas bottle via a multichannel gas feed. The following gas mixtures were used to flush the apparatus and to apply a pressure of 10 bar to the reaction solution: a) 7% methane, 8% oxygen, 85% nitrogen, b) 7% propane, 8% oxygen, 85% nitrogen or c) 10% butane, 8% oxygen, 82% nitrogen. The reaction mixture was stirred at 100 rpm with a crosshead-shaped magnetic stirrer (VWR). At the end of the reaction the pressure was carefully released from the reaction vessels, a 1 ml aliquot was centrifuged for 10 min at 13 000 rpm and analyzed by HPLC. […] Each experiment comprised at least one positive control for the enzyme activity, in which dodecanoic acid was added as additive (1 mM final concentration, from a 100 mM stock in DMSO), while the enzyme was exposed to 10 bar of the gaseous alkane mixture. The reaction of dodecanoic acid was analyzed using decanoic acid (1 mM final concentration, from a 100 mM stock in DMSO) as standard. The samples were extracted for the GC analysis with 0.5 volume of MTBE and were analyzed by GC.
30 min isotherm, 60-240° C. at 16° C./min, 240° C. for 5 min isotherm.
The quantification of propanol and butanol was carried out using the RID-10A detector, while the quantification of methanol was carried out using the RID-10A or, preferably, the ED 50 detector. The ED 50 detector was operated in integrated, amperometric detection mode with an Ag reference electrode in the range of 300 nC. The detection was carried out in waveform as follows: […]

P450 BM3 [2] = molecular target: T1, P450 BM3; assay: P450 BM3 catalysed oxidation of butane and propane in the presence of additives; format: biochemical, Bacillus megaterium; design: polyhistidine (His6) tag from vector pETM11 (N); made in house; host or cells: E. coli BL21 (DE3) GOLD; settings: 1 mM additive, 25° C; for % ee: Butane oxidation product; for TON: 10 bar
Description: as §1
The quantification of propanol and butanol was carried out using the RID-10A detector, while the quantification of methanol was carried out using the RID-10A or, preferably, the ED 50 detector. The ED 50 detector was operated in integrated, amperometric detection mode with an Ag reference electrode in the range of 300 nC. The detection was carried out in waveform as follows:
The P450 BM3 catalysed oxidation of butane and propane was carried out in the presence or absence of additives 1 under standard conditions as follows: 2.5 ml reaction volume, 5 ml gas volume, 1% DMF, 100 mM KPi, pH 8.0, 10 bar pressure (10% n-butane, 8% O2, 82% N2; 7% propane, 8% O2, 85% N2), propane oxidation: 14.5 h, butane oxidation: 17.5 h., 25° C.

P450 BM3 [3] = molecular target: T1, P450 BM3; settings: 1 mM additive, 20° C; for TON: mol of product/mol of enzyme; for Regioselectivity: 1 hour
Description: For hydroxylating alkanes, for example C6 and C8 alkanes, the substrate was added to the reaction solution from a 160 mM stock in EtOH and was adjusted to a final concentration of 3.2 mM. The solution further comprised 0.1 M glucose (Riedel de Haen), 1 mM NADP^+ (Codexis, Jülich, Germany), 1 U/ml GDH (#001, Codexis, Jülich, Germany), 1 mM additive (unless otherwise stated), BM3-WT enzyme and 100 mM KPi, pH 8.0 with a total volume of 20 ml. The reactions were shaken for 1 hour at 20° C. in a 50 ml Falcon reaction tube in a bacterial incubator at 130 rpm. After one hour, three aliquots were removed, each of 1 ml volume, and acidified with 0.1 ml of 10% HCl. Subsequently 1 mM 1-pentanol was added as internal standard. The mixture was extracted with half a volume of MTBE and analyzed by gas chromatography.
Hydroxylation products were analyzed by GC using the following instruments and under the following conditions: HP6890+7683HP (Hewlett Packard, USA); column: 15 m Stabilwax phase, internal diameter 0.25 mm, film thickness 0.5 μm, (J&W, Germany); pressure: 0.8 bar H2; split rate 60; injector: 220° C.; temperature gradient: 40° C. 4 min isotherm, 40-60° C. at 4° C./min, 60° C.-250° C. at 15° C./min. FID detector. The product peaks were quantified as a ratio to the 1 mM 1-pentanol peak using the following, previously determined, correction factors: 2-octanol: 2.36; 3-,4-octanol: 2.23; 2-,3-hexanol:1.218; 3-Me-3-PeOH,3-Me-2-PeOH: 1.49; 3,3-Di-Me-2-BuOH: 1.43; 2,3-Di-Me-BuOH: 1.317.
Reaction conditions: 3.2 mM alkane; 1% v/v DMF; 2% v/v ethanol; 100 mM glucose, 1 mM NADP^+, 1 U/ml GDH, 1 mM additive, 100 mM KPi, pH 8.0, total volume 20 ml; 1 hour; 20° C. The P450-BM3 concentration depended on the compound used 2: 1 μM, 3: 2.9 μM, 4: 2.9 μM, 5: 1.1 μM, 6: 2.7 μM)
The turnover numbers (TON) were calculated (mol of product/mol of enzyme) for the enzyme at the end of the reaction.

[4] = Butane (10% n-butane, 8% O2, 82% N2, 10 bar), 2.3 μM enzyme, 17.5 h
[5] = alkane 2 (3.2 mM), 1 μM P450-BM3, 1 hour
[6] = alkane 4 (3.2 mM), 2.9 μM P450-BM3, 1 hour
[7] = alkane 5 (3.2 mM), 1.1 μM P450-BM3, 1 hour
[8] = Propane (7% propane, 8% O2, 85% N2, 10 bar), 2.9 μM enzyme, 14.5 h
[9] = alkane 3 (3.2 mM), 2.9 μM P450-BM3, 1 hour
[10] = alkane 6 (3.2 mM), 2.7 μM P450-BM3, 1 hour

T1 sequence (P14779 whole entry): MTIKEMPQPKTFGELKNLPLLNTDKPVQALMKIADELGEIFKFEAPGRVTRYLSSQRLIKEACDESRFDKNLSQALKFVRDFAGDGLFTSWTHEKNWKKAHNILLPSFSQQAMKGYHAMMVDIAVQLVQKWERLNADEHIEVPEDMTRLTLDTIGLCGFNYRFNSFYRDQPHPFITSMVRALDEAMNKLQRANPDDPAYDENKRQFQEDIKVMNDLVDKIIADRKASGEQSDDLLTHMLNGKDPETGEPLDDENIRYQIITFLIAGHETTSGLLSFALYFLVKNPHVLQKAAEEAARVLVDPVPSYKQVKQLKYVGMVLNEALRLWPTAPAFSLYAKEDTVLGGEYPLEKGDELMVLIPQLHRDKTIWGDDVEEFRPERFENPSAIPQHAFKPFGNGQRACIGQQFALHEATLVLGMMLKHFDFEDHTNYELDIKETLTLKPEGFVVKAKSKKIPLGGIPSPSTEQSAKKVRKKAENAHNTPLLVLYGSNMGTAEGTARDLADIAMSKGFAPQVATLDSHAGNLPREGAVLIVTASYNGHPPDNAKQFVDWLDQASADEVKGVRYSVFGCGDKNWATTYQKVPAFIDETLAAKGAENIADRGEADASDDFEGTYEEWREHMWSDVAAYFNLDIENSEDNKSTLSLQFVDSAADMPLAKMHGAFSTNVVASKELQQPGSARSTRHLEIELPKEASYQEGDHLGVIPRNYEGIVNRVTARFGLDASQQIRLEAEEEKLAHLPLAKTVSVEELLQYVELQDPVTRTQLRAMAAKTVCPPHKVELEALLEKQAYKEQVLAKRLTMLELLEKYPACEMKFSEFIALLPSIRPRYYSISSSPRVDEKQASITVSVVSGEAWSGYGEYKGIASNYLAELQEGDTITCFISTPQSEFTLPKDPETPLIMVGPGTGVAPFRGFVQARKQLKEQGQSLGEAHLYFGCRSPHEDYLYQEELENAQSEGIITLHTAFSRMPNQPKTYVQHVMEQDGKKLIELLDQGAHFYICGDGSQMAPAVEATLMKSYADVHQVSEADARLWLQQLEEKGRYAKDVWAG

Row | SMILES | Total product formed (methanol) (P450 BM3 [1]; 1.3 μM enzyme, 21 h) | TON (P450 BM3 [1]; 1.3 μM enzyme, 21 h) | Total product formed (P450 BM3 [2]; [4]) | % ee (P450 BM3 [2]; 17.5 h) | TON (P450 BM3 [2]; Butane, 2.3 μM enzyme, 17.5 h) | other results
1 | O=C(O)C(F)(F)C(F)(F)C(F)(F)C(F)(F)C(F)(F)C(F)(F)C(F)(F)C(F)(F)F [Additive 1c, perfluorononanoic acid] | 2.75 mM | 2053 | 2.0 mM | 23% | 879 | Total product formed (P450 BM3 [3]; [5]): 1.16 mM; TON (P450 BM3 [3]; [5]): 1184; Total product formed (P450 BM3 [3]; [6]): 1.36 mM; TON (P450 BM3 [3]; [6]): 476; Total product formed (P450 BM3 [3]; [7]): 0.96 mM; TON (P450 BM3 [3]; [7]): 892; Regioselectivity (P450 BM3 [3]; alkane 5 (3.2 mM), cell reads: only 2-Hydroxy-3,3-dimethylbutane): only 2-Hydroxy-3,3-
2 | O=C(O)C(F)(F)C(F)(F)C(F)(F)C(F)(F)C(F)(F)C(F)(F)F [Additive 1b, perfluoroheptanoic acid] |  |  | 8.4 mM | 22% | 3632 | 
3 | O=C(O)C(F)(F)C(F)(F)C(F)(F)C(F)(F)C(F)(F)C(F)(F)C(F)(F)C(F)(F)C(F)(F)C(F)(F)C(F)(F)C(F)(F)F [Additive 1g, perfluorotridecanoic acid] | 0.75 mM | 560 |  |  |  | 
4 | O=C(O)C(F)(F)C(F)(F)C(F)(F)C(F)(F)C(F)(F)C(F)(F)C(F)(F)C(F)(F)C(F)(F)C(F)(F)C(F)(F)C(F)(F)C(F)(F)F [Additive 1h, perfluorotetradecanoic acid] | 0.28 mM | 210 |  |  |  | Total product formed (P450 BM3 [2]; [8]): 0.50 mM; TON (P450 BM3 [2]; Propane, 2.9 μM enzyme, 14.5 h): 170
5 | O=C(O)C(F)(F)F [Additive 1a] |  |  | 1.1 mM | 32% | 469 | 
6 | O=C(O)C(F)(F)C(F)(F)C(F)(F)C(F)(F)C(F)(F)C(F)(F)C(F)(F)C(F)(F)C(F)(F)C(F)(F)C(F)(F)F [Additive 1f, perfluorododecanoic acid] | 1.25 mM | 933 |  |  |  | Total product formed (P450 BM3 [2]; [8]): 0.67 mM; TON (P450 BM3 [2]; Propane, 2.9 μM enzyme, 14.5 h): 227
7 | O=C(O)C(F)(F)C(F)(F)C(F)(F)C(F)(F)C(F)(F)C(F)(F)C(F)(F)C(F)(F)C(F)(F)F [Additive 1d, perfluorodecanoic acid] | 3.31 mM | 2472 | 3.9 mM | 20% | 1699 | 
8 | OCCC(F)(F)C(F)(F)C(F)(F)C(F)(F)C(F)(F)C(F)(F)F [1H, 1H, 2H, 2H-perfluorooctan-1-ol] |  |  |  |  |  | Total product formed (methanol) (P450 BM3 [1]; 19 h): 2.53 mM; TON (P450 BM3 [1]; 19 h): 1889
9 | O=C(O)C(F)(F)C(F)(F)C(F)(F)C(F)(F)C(F)(F)C(F)(F)C(F)(F)C(F)(F)C(F)(F)C(F)(F)F [Additive 1e, perfluoroundecanoic acid] | 1.81 mM | 1353 | 5.8 mM | 19% | 2519 | Total product formed (P450 BM3 [2]; [8]): 3.0 mM; TON (P450 BM3 [2]; Propane, 2.9 μM enzyme, 14.5 h): 1021; Total product formed (P450 BM3 [3]; [9]): 1.50 mM; TON (P450 BM3 [3]; [9]): 525; Total product formed (P450 BM3 [3]; [10]): 0.19 mM; TON (P450 BM3 [3]; [10]): 3241; Regioselectivity (P450 BM3 [3]; alkane 6 (3.2 mM), cell reads: only 2-Hydroxy-2,3-dimethylbutane): only 2-Hydroxy-2,3-
10 | OCCCCCCC(F)(F)C(F)(F)F [6(perfluoroethyl)hexanol, 6-(perfluoroethyl)hexanol] |  |  |  |  |  | Total product formed (methanol) (P450 BM3 [1]; 19 h): 2.69 mM; TON (P450 BM3 [1]; 19 h): 2006
11 | OCCCC(F)(F)C(F)(F)C(F)(F)C(F)(F)C(F)(F)C(F)(F)C(F)(F)C(F)(F)F [1H, 1H, 2H, 2H, 3H, 3H-Perfluoroundecano, 1H, 1H, 1H, 2H, 2H, 3H, 3H-perfluoroundecanol] |  |  |  |  |  | Total product formed (methanol) (P450 BM3 [1]; 19 h): 0.84 mM; TON (P450 BM3 [1]; 19 h): 630
